Experimental data as given in patent US20190070182A1, “USES OF PYRIMIDO-PYRIDAZINONES TO TREAT CANCER” (Asana Biosciences, LLC, priority 2015, published 2019).

Assays:
[1] = system: Pfeiffer ("Parental") DLBCL cell line; assay: cell proliferation, Pfeiffer parental; assay type: cell-based; conditions: Homo sapiens
Experimental: (§1) This activity of ASN002 was assessed using a diffuse large B-cell lymphoma (DLBCL) cell line, Pfeiffer (“Parental”); and an ibrutinib-resistant variant of the same cell line (“Ibrutinib-R”), which was developed by growing the cells in the presence of increasing concentrations of ibrutinib. Pools of ibrutinib-resistant cells were tested in this study. The drug idelalisib (which was approved by the FDA in […] for the treatment of B-cell blood cancers) was used for comparison as a reference compound. The data are set forth in Table A (IC50 is the half maximal inhibitory concentration).

[2] = system: ibrutinib-resistant variant of Pfeiffer ("Ibrutinib-R"); assay: cell proliferation, ibrutinib-resistant Pfeiffer; assay type: cell-based; conditions: Homo sapiens, pools of resistant cells
Experimental: as §1

Q: How did the IC50 [1] turn out when `C=CC(=O)N1CCC[C@@H](n2nc(-c3ccc(Oc4ccccc4)cc3)c3c(N)ncnc32)C1` [Ibrutinib, ibrutinib] was run?
A: 270 nM

Q: What about the IC50 [2] of the same compound?
A: 4500 nM
